Results taken from patent US11149037B2, “Pyrazole MAGL inhibitors” (H. Lundbeck A/S, priority 2017, dated 2021).

Tests used:
Type in all cases: biochemical
FAAH [1] = target: FAAH (Homo sapiens (Human), UniProt O00519); assay: In vitro competitive activity-based protein profiling, human proteomes (prefrontal cortex or PC3 cell membrane fractions); conditions: human proteome; for inhibition at 1 µM: read-out: FAAH % inh. 1 μM (human)
Summary of the method: (§1)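 Activity of MAGL and FAAH was quantified from fluorescent gel band intensities. Beforehand, inhibitors at several concentrations competed against subsequent probe labelling (FP-Rh, JW912 or HT-01) in species-matched proteomes, each step 30 min at 37° C.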

MAGL [2] = target: MAGL (Homo sapiens (Human), UniProt Q99685); assay: as above; conditions: human proteome; for inhibition at 1 µM: read-out: MAGL % inh. 1 μM (human)
Summary of the method: as §1

FAAH [3] = target: FAAH (Mus musculus (Mouse), UniProt O08914); assay: In vitro competitive activity-based protein profiling, mouse proteomes (brain membrane fraction or cell lysates); conditions: mouse proteome, read-out: FAAH % inh. 1 μM (mouse)
Summary of the method: as §1

MAGL [4] = target: MAGL (Mus musculus (Mouse), UniProt O35678); assay: as above; conditions: mouse proteome, read-out: MAGL % inh. 1 μM (mouse)
Summary of the method: as §1

Chain of FAAH (Mus musculus (Mouse), UniProt O08914) (O08914 whole entry): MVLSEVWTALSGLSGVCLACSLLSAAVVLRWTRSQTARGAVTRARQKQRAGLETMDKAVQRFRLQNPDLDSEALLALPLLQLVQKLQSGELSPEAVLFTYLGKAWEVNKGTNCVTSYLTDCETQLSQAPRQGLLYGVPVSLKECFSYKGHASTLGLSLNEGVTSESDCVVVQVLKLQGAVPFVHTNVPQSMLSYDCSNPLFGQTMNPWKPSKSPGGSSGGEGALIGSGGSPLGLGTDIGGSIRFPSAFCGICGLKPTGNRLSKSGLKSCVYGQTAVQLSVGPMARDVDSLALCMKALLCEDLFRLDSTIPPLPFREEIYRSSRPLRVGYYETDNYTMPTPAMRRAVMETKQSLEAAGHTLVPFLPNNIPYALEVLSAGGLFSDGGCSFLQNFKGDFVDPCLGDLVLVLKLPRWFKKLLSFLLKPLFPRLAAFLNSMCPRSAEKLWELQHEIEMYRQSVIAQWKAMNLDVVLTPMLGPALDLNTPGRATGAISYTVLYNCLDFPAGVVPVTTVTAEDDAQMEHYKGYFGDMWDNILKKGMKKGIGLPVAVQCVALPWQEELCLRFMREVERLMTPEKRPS
Chain of FAAH (Homo sapiens (Human), UniProt O00519) (O00519 whole entry): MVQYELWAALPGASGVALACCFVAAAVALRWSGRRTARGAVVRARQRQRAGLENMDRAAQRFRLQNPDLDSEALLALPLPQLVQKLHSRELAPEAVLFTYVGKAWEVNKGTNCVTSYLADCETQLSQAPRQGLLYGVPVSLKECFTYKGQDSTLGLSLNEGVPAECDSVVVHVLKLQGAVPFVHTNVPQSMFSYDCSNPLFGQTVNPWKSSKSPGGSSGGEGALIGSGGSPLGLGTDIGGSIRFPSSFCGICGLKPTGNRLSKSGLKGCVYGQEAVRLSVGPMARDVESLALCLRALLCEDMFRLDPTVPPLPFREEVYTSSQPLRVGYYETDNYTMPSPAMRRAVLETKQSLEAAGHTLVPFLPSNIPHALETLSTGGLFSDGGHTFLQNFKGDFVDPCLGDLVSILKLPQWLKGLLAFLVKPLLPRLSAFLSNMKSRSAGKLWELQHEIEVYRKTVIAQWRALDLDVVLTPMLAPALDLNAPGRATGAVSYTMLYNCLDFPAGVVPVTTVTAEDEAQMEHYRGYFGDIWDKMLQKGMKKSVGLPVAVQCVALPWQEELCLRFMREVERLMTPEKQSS
Chain of MAGL (Homo sapiens (Human), UniProt Q99685) (Q99685 whole entry): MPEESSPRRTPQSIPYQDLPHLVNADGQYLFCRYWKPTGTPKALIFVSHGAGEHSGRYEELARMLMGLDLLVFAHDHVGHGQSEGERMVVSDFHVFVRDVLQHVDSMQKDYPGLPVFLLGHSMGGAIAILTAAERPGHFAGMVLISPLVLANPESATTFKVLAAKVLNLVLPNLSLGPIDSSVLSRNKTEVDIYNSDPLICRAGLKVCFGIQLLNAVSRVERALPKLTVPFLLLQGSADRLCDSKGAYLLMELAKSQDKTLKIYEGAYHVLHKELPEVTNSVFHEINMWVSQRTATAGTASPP
Chain of MAGL (Mus musculus (Mouse), UniProt O35678) (O35678 whole entry): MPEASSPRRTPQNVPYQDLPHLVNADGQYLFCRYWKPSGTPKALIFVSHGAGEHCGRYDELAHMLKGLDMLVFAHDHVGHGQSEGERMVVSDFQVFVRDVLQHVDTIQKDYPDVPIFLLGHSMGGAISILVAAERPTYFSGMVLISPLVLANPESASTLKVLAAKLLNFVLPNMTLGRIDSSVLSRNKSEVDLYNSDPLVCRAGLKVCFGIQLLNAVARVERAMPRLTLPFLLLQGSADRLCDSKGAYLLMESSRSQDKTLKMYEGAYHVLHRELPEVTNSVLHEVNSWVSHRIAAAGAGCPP

inhibition at 1 µM (FAAH [1]) [%] | inhibition at 1 µM (MAGL [2]) [%] | inhibition at 1 µM (FAAH [3]) [%] | inhibition at 1 µM (MAGL [4]) [%] | inhibition at 10 µM (MAGL [2]; 10 μM, read-out: MAGL % inh. (human) @ 10 μM) [%] | SMILES | IC50 (FAAH [1]) [µM] | IC50 (MAGL [2]) [µM]
0 to 25 | > 75 | 0 to 25 | > 75 |  | CS(=O)(=O)Nc1ccn(C(=O)N2CCN(Cc3nc4ccccc4s3)CC2)n1 [Example 56, N-(1-(4-(Benzo[d]thiazol-2-ylmethyl)piperazine-1-carbonyl)-1H-pyrazol-3-yl)methanesulfonamide] |  | 
0 to 25 | > 75 | 0 to 25 | > 75 |  | Cc1c(CN2CCN(C(=O)n3ccc(NS(C)(=O)=O)n3)CC2)sc2ccccc12 [Example 57, N-(1-(4-((3-Methylbenzo[b]thiophen-2-yl)methyl)piperazine-1-carbonyl)-1H-pyrazol-3-yl)methanesulfonamide] |  | 
0 to 25 | > 75 | 0 to 25 | > 75 |  | CS(=O)(=O)Nc1ccn(C(=O)N2CCC3(CCN(Cc4cc(N5CCOCC5)cc(C(F)(F)F)c4)C3)CC2)n1 [Example 59, N-(1-(2-(3-Morpholino-5-(trifluoromethyl)benzyl)-2,8-diazaspiro[4.5]decane-8-carbonyl)-1H-pyrazol-3-yl)methanesulfonamide] |  | 
0 to 25 | > 75 | 0 to 25 | > 75 |  | CS(=O)(=O)Nc1ccn(C(=O)N2CCC3(CCN(Cc4ccc(C(F)(F)F)cc4N4CCC(F)CC4)CC3)C2)n1 [Example 60, N-(1-(8-(2-(4-Fluoropiperidin-1-yl)-4-(trifluoromethyl)benzyl)-2,8-diazaspiro[4.5]decane-2-carbonyl)-1H-pyrazol-3-yl)methanesulfonamide] |  | 
0 to 25 | 25 to 50 | 0 to 25 | 50 to 75 |  | Cc1nc(Cl)ccc1CN1CCN(C(=O)n2ccc(NS(C)(=O)=O)n2)CC1 [Example 61, N-(1-(4-((6-Chloro-2-methylpyridin-3-yl)methyl)piperazine-1-carbonyl)-1H-pyrazol-3-yl)methanesulfonamide] |  | 
0 to 25 | > 75 | 0 to 25 | > 75 |  | CS(=O)(=O)Nc1ccn(C(=O)N2CCC3(CCN(Cc4ccc(C(F)(F)F)cc4N4CCOCC4)C3)CC2)n1 [Example 62, N-(1-(2-(2-Morpholino-4-(trifluoromethyl)benzyl)-2,8-diazaspiro[4.5]decane-8-carbonyl)-1H-pyrazol-3-yl)methanesulfonamide] |  | 
0 to 25 | > 75 | 0 to 25 | > 75 |  | CS(=O)(=O)Nc1ccn(C(=O)N2CCC3(CCN(Cc4cc(N5CCCC5)cc(C(F)(F)F)c4)C3)CC2)n1 [Example 64, N-(1-(2-(3-(Pyrrolidin-1-yl)-5-(trifluoromethyl)benzyl)-2,8-diazaspiro[4.5]decane-8-carbonyl)-1H-pyrazol-3-yl)methanesulfonamide] |  | 
0 to 25 | > 75 | 0 to 25 | > 75 |  | Cc1c(CN2CCN(C(=O)n3ccc(NS(C)(=O)=O)n3)CC2)[nH]c2c(Cl)cccc12 [Example 65, N-(1-(4-((7-Chloro-3-methyl-1H-indol-2-yl)methyl)piperazine-1-carbonyl)-1H-pyrazol-3-yl)methanesulfonamide] |  | 
0 to 25 | > 75 | 0 to 25 | > 75 |  | CS(=O)(=O)Nc1ccn(C(=O)N2CCN(Cc3cc4cc(Cl)ccc4s3)CC2)n1 [Example 66, N-(1-(4-((5-Chlorobenzo[b]thiophen-2-yl)methyl)piperazine-1-carbonyl)-1H-pyrazol-3-yl)methanesulfonamide] |  | 
25 to 50 | > 75 | 25 to 50 | > 75 |  | CS(=O)(=O)Nc1ccn(C(=O)N2CCN(Cc3cc4c(Cl)cccc4s3)CC2)n1 [Example 67, N-(1-(4-((4-Chlorobenzo[b]thiophen-2-yl)methyl)piperazine-1-carbonyl)-1H-pyrazol-3-yl)methanesulfonamide] |  | 
0 to 25 | > 75 | 0 to 25 | > 75 |  | CS(=O)(=O)Nc1ccn(C(=O)N2CCC3(CCN(Cc4cc(Cl)cc(N5CCCC5)c4)C3)CC2)n1 [Example 68, N-(1-(2-(3-Chloro-5-(pyrrolidin-1-yl)benzyl)-2,8-diazaspiro[4.5]decane-8-carbonyl)-1H-pyrazol-3-yl)methanesulfonamide] |  | 
0 to 25 |  | 0 to 25 | 0 to 25 | > 75 | C#Cc1ccc(CN2CCN(C(=O)n3ccc(NS(C)(=O)=O)n3)CC2)cc1 [Example 69, N-(1-(4-(4-Ethynylbenzyl)piperazine-1-carbonyl)-1H-pyrazol-3-yl)methanesulfonamide] |  | 
0 to 25 | > 75 | 0 to 25 | > 75 |  | CS(=O)(=O)Nc1ccn(C(=O)N2CCN(Cc3sc4ccccc4c3Cl)CC2)n1 [Example 70, N-(1-(4-((3-Chlorobenzo[b]thiophen-2-yl)methyl)piperazine-1-carbonyl)-1H-pyrazol-3-yl)methanesulfonamide] |  | 
0 to 25 | > 75 | 50 to 75 | 25 to 50 |  | CS(=O)(=O)Nc1ccn(C(=O)N2CCC3(CCN(Cc4ccc(N5CCCC5)c(C(F)(F)F)c4)C3)CC2)n1 [Example 72, N-(1-(2-(4-(Pyrrolidin-1-yl)-3-(trifluoromethyl)benzyl)-2,8-diazaspiro[4.5]decane-8-carbonyl)-1H-pyrazol-3-yl)methanesulfonamide] |  | 
0 to 25 | > 75 | 50 to 75 | > 75 |  | CS(=O)(=O)Nc1ccn(C(=O)N2CCC3(CCN(Cc4ccc(C(F)(F)F)c(N5CCCC5)c4)C3)CC2)n1 [Example 73, N-(1-(2-(3-(Pyrrolidin-1-yl)-4-(trifluoromethyl)benzyl)-2,8-diazaspiro[4.5]decane-8-carbonyl)-1H-pyrazol-3-yl)methanesulfonamide] |  | 
0 to 25 | 50 to 75 | 0 to 25 | 0 to 25 |  | CS(=O)(=O)Nc1ccn(C(=O)N2CCN(Cc3ccc(C(F)(F)F)cc3NCCC(=O)O)CC2)n1 [Example 77, 3-((2-((4-(3-(Methylsulfonamido)-1H-pyrazole-1-carbonyl)piperazin-1-yl)methyl)-5-(trifluoromethyl)phenyl)amino)propanoic acid] |  | 
0 to 25 | > 75 | 0 to 25 | > 75 |  | CS(=O)(=O)Nc1ccn(C(=O)N2CC3CN(Cc4ccc(C(F)(F)F)cc4NCCCC(=O)O)CC3C2)n1 (stereo not shown) [Example 78, 4-((2-((5-(3-(Methylsulfonamido)-1H-pyrazole-1-carbonyl)hexahydropyrrolo[3,4-c]pyrrol-2(1H)-yl)methyl)-5-(trifluoromethyl)phenyl)amino)butanoic acid] |  | 
0 to 25 | > 75 | 0 to 25 | 50 to 75 |  | CS(=O)(=O)Nc1ccn(C(=O)N2CCN(Cc3cccnc3N3CCCC3)CC2)n1 [Example 81, N-(1-(4-((2-(Pyrrolidin-1-yl)pyridin-3-yl)methyl)piperazine-1-carbonyl)-1H-pyrazol-3-yl)methanesulfonamide] |  | 
0 to 25 | > 75 | 0 to 25 | 50 to 75 |  | CS(=O)(=O)Nc1ccn(C(=O)N2CCN(Cc3ccncc3N3CCCC3)CC2)n1 [Example 82, N-(1-(4-((3-(Pyrrolidin-1-yl)pyridin-4-yl)methyl)piperazine-1-carbonyl)-1H-pyrazol-3-yl)methanesulfonamide] |  | 
0 to 25 | > 75 | 0 to 25 | > 75 |  | Cc1cc(CN2CCCC23CCN(C(=O)n2ccc(NC(=O)C4CC4)n2)CC3)ccc1Cl [Example 83, N-(1-(1-(4-Chloro-3-methylbenzyl)-1,8-diazaspiro[4.5]decane-8-carbonyl)-1H-pyrazol-3-yl)cyclopropanecarboxamide] |  | 
0 to 25 | > 75 | 0 to 25 | > 75 |  | CC(=O)Nc1ccn(C(=O)N2CCC3(CCCN3C(=O)c3ccc(Cl)c(C)c3)CC2)n1 [Example 84, N-(1-(1-(4-Chloro-3-methylbenzoyl)-1,8-diazaspiro[4.5]decane-8-carbonyl)-1H-pyrazol-3-yl)acetamide] |  | 
0 to 25 | > 75 | 0 to 25 | > 75 |  | CC(=O)Nc1ccn(C(=O)N2CCC3(CCCN3C(=O)c3ccc(C#N)c(C)c3)CC2)n1 [Example 85, N-(1-(1-(4-Cyano-3-methylbenzoyl)-1,8-diazaspiro[4.5]decane-8-carbonyl)-1H-pyrazol-3-yl)acetamide] |  | 

SMILES | inhibition at 1 µM (FAAH [1]) [%] | inhibition at 1 µM (MAGL [2]) [%] | inhibition at 1 µM (FAAH [3]) [%] | inhibition at 1 µM (MAGL [4]) [%] | inhibition at 10 µM (MAGL [2]; 10 μM, read-out: MAGL % inh. (human) @ 10 μM) [%] | IC50 (FAAH [1]) [µM] | IC50 (MAGL [2]) [µM]
CS(=O)(=O)Nc1ccn(C(=O)N2CCC3(CCN(Cc4ccc(C(F)(F)F)cc4N4C5CCC4COC5)C3)CC2)n1 [Example 74, N-(1-(2-(2-(3-Oxa-8-azabicyclo[3.2.1]octan-8-yl)-4-(trifluoromethyl)benzyl)-2,8-diazaspiro[4.5]decane-8-carbonyl)-1H-pyrazol-3-yl)methanesulfonamide] | 0 to 25 | > 75 | 0 to 25 | > 75 |  | 1 to 10 | < 0.1
